Where two headings read alike, the source gives them in different places. One block for each compound: values may come before it.
Assays:
[1] = target: T1, EGFR[T790M/C797S/d746-750] (Homo sapiens, UniProt P00533, C797S/DEL746-750/T790M); assay: Inhibition of EGFR[T790M/C797S/d746-750] biochemical enzymatic activity (HTRF); settings: EGFR T790M-C797S-Del19, 1 mM ATP, 1 h, room temperature, read-out: IC50 (nM) @T790M - C797S - Del19
T1 construct: purchased Carna Bio
Outline: (§1)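 Read-out is the HTRF 665/615 nm ratio (excitation 320 nm), taken as proportional to kinase activity after a 1 h room-temperature reaction with 1 mM ATP and 1 μM biotinylated TK substrate. IC50 values derive from four-parameter logistic fitting.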

[2] = target: T2, EGFR[T790M/C797S/L858R] (Homo sapiens, UniProt P00533, C797S/L858R/T790M); assay: Inhibition of EGFR[T790M/C797S/L858R] biochemical enzymatic activity (HTRF); settings: EGFR T790M-C797S-L858R, 1 mM ATP, 1 h, room temperature, read-out: IC50 (nM) @T790M- C797S - L858R
T2 construct: purchased Carna Bio
Outline: as §1

[3] = target: T3, EGFR Exon19Del/T790M (Homo sapiens, UniProt P00533, DEL746-750/T790M); assay: Inhibition of EGFR Exon19Del/T790M biochemical enzymatic activity (HTRF); settings: EGFR Del19-T790M, 1 mM ATP, 1 h, room temperature, read-out: IC50 (nM) @Del19-T790M
T3 construct: purchased Carna Bio
Outline: as §1

[4] = target: T4, EGFR (C797S L858R) (Homo sapiens, UniProt P00533, C797S/L858R); assay: Inhibition of EGFR (C797S L858R) biochemical enzymatic activity (HTRF); settings: EGFR L858-C797S, 1 mM ATP, 1 h, room temperature, read-out: IC50 (nM) @L858-C797S
T4 construct: purchased signalchem
Outline: as §1

[5] = tested on: Ba/F3 cells expressing EGFR mutations; assay: Cell proliferation assay, Ba/F3 cells expressing EGFR mutations (CellTiter-Glo, 72 hours); assay type: cell-based; settings: CellTiter-Glo
Outline: (§2)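 Cells are exposed to graded compound concentrations after overnight plating, using 500 PC-9 or 5000 Ba/F3 per well. Baseline-subtracted viability is compared with vehicle to give percent proliferation, then GI50.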

[6] = target: T5, EGFR wild type (Homo sapiens, UniProt P00533); assay: Inhibition of EGFR wild type biochemical enzymatic activity (HTRF); settings: EGFR WT, 1 mM ATP, 1 h, room temperature, read-out: IC50 (nM) @WT
T5 construct: purchased Carna Bio
Outline: as §1

[7] = target: T6, EGFR L858R/T790M (Homo sapiens, UniProt P00533, L858R/T790M); assay: Inhibition of EGFR L858R/T790M biochemical enzymatic activity (HTRF); settings: EGFR L858R-T790M, 1 mM ATP, 1 h, room temperature, read-out: IC50 (nM) @L858R-T790M
T6 construct: purchased Carna Bio
Outline: as §1

[8] = target: T7, EGFR L858R (Homo sapiens, UniProt P00533, L858R); assay: Inhibition of EGFR L858R biochemical enzymatic activity (HTRF); settings: 1 mM ATP, 1 h, room temperature, read-out: IC50 (nM) @L858R
T7 construct: purchased Carna Bio
Outline: as §1

[9] = tested on: A-431; assay: Cell proliferation GI50, A-431 cells (Table 6); assay type: cell-based
[10] = target: T8, EGFR (d746-750 C797S) (Homo sapiens, UniProt P00533, C797S/DEL746-750); assay: Inhibition of EGFR (d746-750 C797S) biochemical enzymatic activity (HTRF); settings: EGFR Del19-C797S, 1 mM ATP, 1 h, room temperature, read-out: IC50 (nM) @Del19-C797S
T8 construct: purchased signalchem
Outline: as §1

[11] = tested on: PC-9; assay: Cell proliferation assay, PC-9 cells (CellTiter-Glo, 72 hours); assay type: cell-based; settings: PC9 cells, CellTiter-Glo, read-out: PC9 GI50
Outline: as §2

[12] = target: T9, EGFR Exon19Del (Homo sapiens, UniProt P00533, DEL746-750); assay: Inhibition of EGFR Exon19Del biochemical enzymatic activity (HTRF); settings: EGFR Del19, 1 mM ATP, 1 h, room temperature, read-out: IC50 @Del19
T9 construct: purchased Carna Bio
Outline: as §1

[13] = BaF3 cells, EGFR DEL19-C797S, read-out: DEL19-C797S/BaF3 GI50
[14] = BaF3 cells, EGFR DEL19-T790-C797S, read-out: DEL19-T790-C797S/BaF3 GI50
[15] = BaF3 cells, EGFR L858R, read-out: L858R/BaF3 GI50
[16] = BaF3 cells, EGFR L858R-C797S, read-out: L858R-C797S/BaF3 GI50
[17] = BaF3 cells, EGFR L858R-T790-C797S, read-out: L858R-T790-C797S/BaF3 GI50
[18] = BaF3 cells, EGFR L858R-T790M, read-out: L858R-T790M/BaF3 GI50
[19] = EGFR DEL19-T790M, read-out: DEL19-T790M GI50
[20] = Homo sapiens, A-431, A-431 cells

T4 sequence (P00533 25-1210 C797S/L858R): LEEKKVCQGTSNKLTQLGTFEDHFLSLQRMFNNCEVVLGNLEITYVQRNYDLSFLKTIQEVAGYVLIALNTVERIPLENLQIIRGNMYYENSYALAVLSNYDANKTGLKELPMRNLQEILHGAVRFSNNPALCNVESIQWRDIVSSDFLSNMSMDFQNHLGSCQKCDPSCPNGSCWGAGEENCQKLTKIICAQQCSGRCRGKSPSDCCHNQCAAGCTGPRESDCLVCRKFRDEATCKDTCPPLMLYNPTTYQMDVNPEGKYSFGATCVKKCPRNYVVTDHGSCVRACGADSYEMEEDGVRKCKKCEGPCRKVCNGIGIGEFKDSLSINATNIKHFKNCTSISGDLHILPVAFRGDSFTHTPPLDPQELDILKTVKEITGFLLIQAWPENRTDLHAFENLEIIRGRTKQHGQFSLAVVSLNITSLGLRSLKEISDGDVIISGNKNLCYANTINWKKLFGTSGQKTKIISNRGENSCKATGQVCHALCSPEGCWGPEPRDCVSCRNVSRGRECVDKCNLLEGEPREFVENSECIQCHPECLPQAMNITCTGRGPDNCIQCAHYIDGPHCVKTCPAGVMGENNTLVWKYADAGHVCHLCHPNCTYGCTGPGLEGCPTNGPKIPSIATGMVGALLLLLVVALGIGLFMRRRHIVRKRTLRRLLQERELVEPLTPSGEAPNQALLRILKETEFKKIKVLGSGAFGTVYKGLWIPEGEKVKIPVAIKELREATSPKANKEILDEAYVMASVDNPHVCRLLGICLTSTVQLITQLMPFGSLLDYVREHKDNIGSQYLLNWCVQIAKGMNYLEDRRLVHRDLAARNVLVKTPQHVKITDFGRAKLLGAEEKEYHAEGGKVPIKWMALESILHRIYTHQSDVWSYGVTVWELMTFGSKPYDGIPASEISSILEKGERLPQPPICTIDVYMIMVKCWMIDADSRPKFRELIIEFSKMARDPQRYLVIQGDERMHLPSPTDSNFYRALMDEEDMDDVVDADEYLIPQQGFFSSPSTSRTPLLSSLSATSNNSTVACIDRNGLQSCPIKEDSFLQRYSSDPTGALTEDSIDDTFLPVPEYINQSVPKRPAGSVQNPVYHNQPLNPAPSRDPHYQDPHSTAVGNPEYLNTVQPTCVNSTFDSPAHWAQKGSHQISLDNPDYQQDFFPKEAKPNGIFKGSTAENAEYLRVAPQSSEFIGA
T7 sequence (P00533 25-1210 L858R): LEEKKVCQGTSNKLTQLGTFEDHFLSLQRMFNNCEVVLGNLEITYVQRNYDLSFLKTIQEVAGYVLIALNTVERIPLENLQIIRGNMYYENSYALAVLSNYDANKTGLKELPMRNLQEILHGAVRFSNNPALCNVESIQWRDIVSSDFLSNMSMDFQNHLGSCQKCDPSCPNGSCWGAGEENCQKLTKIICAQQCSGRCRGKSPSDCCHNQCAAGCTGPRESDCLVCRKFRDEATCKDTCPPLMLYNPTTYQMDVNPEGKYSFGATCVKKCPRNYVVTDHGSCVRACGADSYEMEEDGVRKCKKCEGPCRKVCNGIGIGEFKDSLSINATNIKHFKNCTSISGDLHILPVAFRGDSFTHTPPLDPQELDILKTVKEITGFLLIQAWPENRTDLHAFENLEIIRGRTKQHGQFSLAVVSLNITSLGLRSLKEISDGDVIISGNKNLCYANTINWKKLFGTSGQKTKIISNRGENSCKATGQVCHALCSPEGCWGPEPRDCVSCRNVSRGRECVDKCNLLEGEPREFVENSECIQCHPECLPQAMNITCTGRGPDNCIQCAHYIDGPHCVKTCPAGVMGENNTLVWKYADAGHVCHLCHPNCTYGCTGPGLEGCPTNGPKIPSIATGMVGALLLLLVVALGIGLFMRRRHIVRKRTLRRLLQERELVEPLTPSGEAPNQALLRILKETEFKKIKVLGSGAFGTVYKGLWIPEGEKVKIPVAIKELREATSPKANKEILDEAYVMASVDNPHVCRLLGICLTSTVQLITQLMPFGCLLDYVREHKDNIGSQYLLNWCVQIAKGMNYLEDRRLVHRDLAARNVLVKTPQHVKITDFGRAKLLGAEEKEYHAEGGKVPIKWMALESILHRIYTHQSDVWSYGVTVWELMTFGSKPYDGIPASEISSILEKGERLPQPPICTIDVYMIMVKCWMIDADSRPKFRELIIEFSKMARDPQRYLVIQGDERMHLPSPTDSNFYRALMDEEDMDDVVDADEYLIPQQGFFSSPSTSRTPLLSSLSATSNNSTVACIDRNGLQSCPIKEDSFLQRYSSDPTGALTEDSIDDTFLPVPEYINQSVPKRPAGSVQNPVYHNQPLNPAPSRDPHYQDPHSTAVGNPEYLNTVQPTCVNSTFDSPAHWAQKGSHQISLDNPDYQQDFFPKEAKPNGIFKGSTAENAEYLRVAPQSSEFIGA
T9 sequence (P00533 with tags, fused parts or gaps DEL746-750 limits assumed): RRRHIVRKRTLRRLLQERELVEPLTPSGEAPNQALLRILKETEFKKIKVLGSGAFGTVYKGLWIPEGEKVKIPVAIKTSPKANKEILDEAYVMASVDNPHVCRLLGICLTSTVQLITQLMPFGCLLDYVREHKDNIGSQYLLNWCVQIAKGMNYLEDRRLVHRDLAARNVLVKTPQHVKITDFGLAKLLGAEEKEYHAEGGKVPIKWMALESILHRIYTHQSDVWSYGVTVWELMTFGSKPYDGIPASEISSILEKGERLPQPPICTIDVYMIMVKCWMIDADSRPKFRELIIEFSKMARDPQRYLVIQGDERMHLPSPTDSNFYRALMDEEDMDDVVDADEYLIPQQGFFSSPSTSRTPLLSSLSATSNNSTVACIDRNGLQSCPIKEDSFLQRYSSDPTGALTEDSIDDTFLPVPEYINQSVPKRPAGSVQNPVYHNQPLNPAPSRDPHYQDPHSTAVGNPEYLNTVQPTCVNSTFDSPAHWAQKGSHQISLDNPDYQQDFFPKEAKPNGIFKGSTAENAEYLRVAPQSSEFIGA
T2 sequence (P00533 25-1210 T790M/C797S/L858R): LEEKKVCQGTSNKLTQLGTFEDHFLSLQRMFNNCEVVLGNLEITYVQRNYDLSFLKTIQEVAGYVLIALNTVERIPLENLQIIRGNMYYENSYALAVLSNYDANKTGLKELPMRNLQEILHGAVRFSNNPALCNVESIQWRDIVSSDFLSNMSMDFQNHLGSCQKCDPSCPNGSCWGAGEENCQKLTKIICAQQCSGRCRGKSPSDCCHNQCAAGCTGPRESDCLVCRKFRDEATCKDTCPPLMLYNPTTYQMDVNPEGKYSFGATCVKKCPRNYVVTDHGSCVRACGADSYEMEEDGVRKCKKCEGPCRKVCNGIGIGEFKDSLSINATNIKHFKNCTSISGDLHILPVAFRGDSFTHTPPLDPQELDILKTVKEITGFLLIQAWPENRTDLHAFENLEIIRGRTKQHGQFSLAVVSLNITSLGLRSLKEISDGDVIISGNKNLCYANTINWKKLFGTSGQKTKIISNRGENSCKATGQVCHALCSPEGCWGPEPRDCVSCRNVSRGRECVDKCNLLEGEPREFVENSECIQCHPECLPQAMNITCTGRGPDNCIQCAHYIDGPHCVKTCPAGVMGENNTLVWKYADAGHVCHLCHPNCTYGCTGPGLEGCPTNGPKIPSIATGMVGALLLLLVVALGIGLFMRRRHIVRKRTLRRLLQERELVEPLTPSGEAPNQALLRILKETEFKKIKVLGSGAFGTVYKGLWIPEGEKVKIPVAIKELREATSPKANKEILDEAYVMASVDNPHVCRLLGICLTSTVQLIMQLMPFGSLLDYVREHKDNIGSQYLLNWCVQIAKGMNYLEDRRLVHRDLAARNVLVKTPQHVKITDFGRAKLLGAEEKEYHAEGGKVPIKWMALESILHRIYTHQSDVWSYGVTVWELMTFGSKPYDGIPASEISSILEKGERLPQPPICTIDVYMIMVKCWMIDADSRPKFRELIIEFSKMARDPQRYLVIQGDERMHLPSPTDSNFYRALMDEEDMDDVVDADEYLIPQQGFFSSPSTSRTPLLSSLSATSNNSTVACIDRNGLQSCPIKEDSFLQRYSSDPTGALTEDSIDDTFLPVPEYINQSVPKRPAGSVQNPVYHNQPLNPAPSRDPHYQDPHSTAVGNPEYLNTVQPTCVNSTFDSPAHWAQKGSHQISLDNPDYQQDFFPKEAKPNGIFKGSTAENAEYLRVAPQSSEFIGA
T8 sequence (P00533 with tags, fused parts or gaps DEL746-750/C797S limits assumed): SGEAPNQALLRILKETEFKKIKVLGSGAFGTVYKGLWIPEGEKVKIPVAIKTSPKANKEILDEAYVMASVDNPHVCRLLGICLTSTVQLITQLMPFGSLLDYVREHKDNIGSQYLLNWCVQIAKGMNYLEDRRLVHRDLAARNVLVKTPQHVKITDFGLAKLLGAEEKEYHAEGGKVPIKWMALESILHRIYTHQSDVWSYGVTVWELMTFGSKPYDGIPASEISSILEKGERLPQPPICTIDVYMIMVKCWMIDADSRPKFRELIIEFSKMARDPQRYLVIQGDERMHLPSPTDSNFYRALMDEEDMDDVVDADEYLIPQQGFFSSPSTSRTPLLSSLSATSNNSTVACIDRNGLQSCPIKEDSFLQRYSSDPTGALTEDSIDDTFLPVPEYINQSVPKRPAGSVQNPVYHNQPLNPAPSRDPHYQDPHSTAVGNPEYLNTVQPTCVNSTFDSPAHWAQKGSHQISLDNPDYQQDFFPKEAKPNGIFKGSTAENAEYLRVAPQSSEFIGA

Structure (SMILES): CN(C)CC1(F)CN(c2ccc3nc4n(c3c2)C23CCC(CN(CCOc5c(cnn5C)-c5cc(cn(C)c5=O)C(=O)N4)C2)C3)C1 (single isomer, unassigned) [Example A72B]
IC50 [1]: 2.2 nM | IC50 [2]: 1.3 nM | IC50 [3]: 2.4 nM | IC50 [4]: 2 nM | GI50 [5, 13]: 0.51 nM | GI50 [5, 14]: 0.58 nM | GI50 [5, 15]: 0.88 nM | GI50 [5, 16]: 1.9 nM | GI50 [5, 17]: 0.51 nM | GI50 [5, 18]: 1.6 nM | GI50 [5, 19]: 0.51 nM | IC50 [6]: 5.2 nM | IC50 [7]: 1.8 nM | IC50 [8]: 2.4 nM | GI50 [9, 20]: 731 nM | IC50 [10]: 0.92 nM | GI50 [11]: 2.1 nM | IC50 [12]: 1.8 nM

Structure (SMILES): CN(C)C1CCN(c2ccc3nc4n(c3c2)C23CCC(CN(CCOc5c(cnn5C)-c5cc(cn(C)c5=O)C(=O)N4)C2)C3)CC1 (single isomer, unassigned) [Example A64B]
IC50 [1]: 2 nM | IC50 [2]: 1.9 nM | IC50 [3]: 1.8 nM | IC50 [4]: 2 nM | GI50 [5, 13]: 0.71 nM | GI50 [5, 14]: 0.92 nM | GI50 [5, 15]: 0.91 nM | GI50 [5, 16]: 1.7 nM | GI50 [5, 17]: 0.79 nM | GI50 [5, 18]: 4.9 nM | GI50 [5, 19]: 1.3 nM | IC50 [6]: 3.6 nM | IC50 [7]: 2 nM | IC50 [8]: 2 nM | GI50 ([9]; A-431 cells): 973 nM | IC50 [10]: 0.95 nM | GI50 [11]: 3.3 nM | IC50 [12]: 1 nM

Structure (SMILES): CN1CC2(CCN(c3ccc4nc5n(c4c3)C34CCC(CN(CCOc6c(cnn6C)-c6cc(cn(C)c6=O)C(=O)N5)C3)C4)C2)C1 (single isomer, unassigned) [Example A73B]
IC50 [1]: 2.1 nM | IC50 [2]: 1.9 nM | IC50 [3]: 2.2 nM | IC50 [4]: 2.9 nM | GI50 [5, 13]: 0.54 nM | GI50 [5, 14]: 1.9 nM | GI50 [5, 15]: 1.8 nM | GI50 [5, 16]: 3.5 nM | GI50 [5, 17]: 1.9 nM | GI50 [5, 18]: 8 nM | GI50 [5, 19]: 1.5 nM | IC50 [6]: 13 nM | IC50 [7]: 1.9 nM | IC50 [8]: 4 nM | GI50 [9, 20]: 1070 nM | IC50 [10]: 1.4 nM | GI50 [11]: 7.3 nM | IC50 [12]: 1.3 nM

More lines, now with the values ahead:

IC50 [1]: > 5000 nM | IC50 [2]: > 5000 nM | IC50 [3]: > 5000 nM | IC50 [4]: > 5000 nM | GI50 [5, 13]: 114 nM | GI50 [5, 14]: 254 nM | GI50 [5, 15]: 323 nM | GI50 [5, 16]: 284 nM | GI50 [5, 17]: 539 nM | GI50 [5, 18]: 944 nM | GI50 [5, 19]: 209 nM | IC50 [6]: > 5000 nM | IC50 [7]: > 5000 nM | IC50 [8]: 4740 nM | GI50 ([9]; A-431 cells): 1660 nM | IC50 [10]: 1560 nM | GI50 [11]: 981 nM | IC50 [12]: 830 nM
Structure (SMILES): Cn1ncc2c1OCCN1CC3CCC(C3)(C1)n1c(nc3ccc(N4CCC(N5CC(F)C5)C4)cc31)NC(=O)c1cc-2c(=O)n(C)c1 (single isomer, unassigned) [Example A94A, 5-[3-(3-Fluoroazetidin-1-yl)pyrrolidin-1-yl]-15,21-dimethyl-23-oxa-2,9,11,15,20,21,26-heptaazaheptacyclo[24.4.1.1^{1,28}.1^{13,17}.0^{2,10}.0^{3,8}.0^{18,22}]tritriaconta-3,5,7,9,13,17(33),18(22),19-octaene-12,16-dione]

IC50 [1]: 7.7 nM | IC50 [2]: 10 nM | IC50 [3]: 8.4 nM | IC50 [4]: 59 nM | GI50 [5, 13]: 1.2 nM | GI50 [5, 14]: 15 nM | GI50 [5, 16]: 11 nM | GI50 [5, 17]: 4.6 nM | GI50 [5, 19]: 7.9 nM | IC50 [6]: 3530 nM | IC50 [7]: 11 nM | IC50 [8]: 94 nM | GI50 ([9]; A-431 cells): 3640 nM | IC50 [10]: 4.6 nM | GI50 [11]: 46 nM | IC50 [12]: 3.5 nM
Structure (SMILES): CN(C)C1CN(c2ccc3nc4n(c3c2)C23CCC(CN(CCOc5c(cnn5C)-c5cc(cn(C)c5=O)C(=O)N4)C2)C3)CC1(F)F (single isomer, unassigned) [Example A99B]

From patent US20260365670A1, “EGFR INHIBITORS AND USES THEREOF” (DIZAL (JIANGSU) PHARMACEUTICAL CO., LTD., priority 2022, published 2026)
